What was measured:
[1] = system: M^pro; settings: at 100 μM; cited from earlier work
[2] = after 2 h

SMILES | inhibition of M^pro [1] | starting material consumed by cysteine [2] [%]
C=C(CC)C(=O)c1ccc(OCC(=O)O)c(Cl)c1Cl [EA, ethacrynic acid] | approximately 20% | –
CCCCCCNC(=O)n1cc(F)c(=O)[nH]c1=O [Carmofur] | – | 75

— article PMC11342919 (RSC Advances, 2024)
